Laboratory results published in patent US9242987B2, “Heterocyclyl pyrazolopyrimidine analogues as JAK inhibitors” (Cellzome Limited, priority 2009, dated 2016).

Key:
JAK3 = target: T1, JAK3 (Homo sapiens, UniProt P52333); experiment: Kinobeads assay, JAK3; type: binding; conditions: mixed Molt4/Ramos cell lysate, dot blot detection
T1 construct: endogenous in cells; host or cells: Mixed Molt4/Ramos lysate (1:2)
T1 sequence (P52333 1-1124): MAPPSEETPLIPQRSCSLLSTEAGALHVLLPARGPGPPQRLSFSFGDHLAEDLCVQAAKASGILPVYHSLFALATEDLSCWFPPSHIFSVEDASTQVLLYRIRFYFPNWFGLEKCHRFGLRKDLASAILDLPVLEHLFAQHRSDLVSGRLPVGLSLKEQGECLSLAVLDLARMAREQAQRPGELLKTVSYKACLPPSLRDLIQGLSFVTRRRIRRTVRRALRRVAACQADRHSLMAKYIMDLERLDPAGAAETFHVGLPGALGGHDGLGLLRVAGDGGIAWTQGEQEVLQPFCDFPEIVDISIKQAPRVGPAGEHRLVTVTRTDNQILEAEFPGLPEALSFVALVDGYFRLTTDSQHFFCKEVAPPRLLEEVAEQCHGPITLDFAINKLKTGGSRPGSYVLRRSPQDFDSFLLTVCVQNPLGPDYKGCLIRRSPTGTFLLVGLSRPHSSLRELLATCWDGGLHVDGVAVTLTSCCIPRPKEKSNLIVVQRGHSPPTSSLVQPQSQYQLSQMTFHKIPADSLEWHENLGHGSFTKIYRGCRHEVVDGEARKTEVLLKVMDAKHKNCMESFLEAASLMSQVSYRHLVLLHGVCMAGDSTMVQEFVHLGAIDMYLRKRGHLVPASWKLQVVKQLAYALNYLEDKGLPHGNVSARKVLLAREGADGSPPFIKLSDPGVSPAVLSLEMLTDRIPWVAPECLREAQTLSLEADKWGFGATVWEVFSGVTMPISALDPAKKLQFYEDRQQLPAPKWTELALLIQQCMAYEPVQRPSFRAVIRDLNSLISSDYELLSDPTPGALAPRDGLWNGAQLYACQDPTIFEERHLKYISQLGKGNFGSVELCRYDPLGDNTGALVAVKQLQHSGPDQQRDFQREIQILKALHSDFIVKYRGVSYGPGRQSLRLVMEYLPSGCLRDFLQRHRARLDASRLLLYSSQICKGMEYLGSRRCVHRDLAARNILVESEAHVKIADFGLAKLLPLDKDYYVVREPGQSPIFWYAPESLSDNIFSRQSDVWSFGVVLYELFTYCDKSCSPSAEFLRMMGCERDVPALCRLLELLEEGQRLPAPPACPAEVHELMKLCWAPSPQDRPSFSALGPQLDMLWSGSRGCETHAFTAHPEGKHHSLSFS
In short: (§1)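 Lysate from Molt4 and Ramos cells combined 1:2 at 10 mg/mL total protein met test compound and an aminopyrido-pyrimidine affinity matrix for 3 h in the cold. Captured JAK2 and JAK3, after elution, were measured by specific-antibody dot blot on an infrared system; dose-response curves yielded IC50.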

JAK2 = target: T2, JAK2 (Homo sapiens, UniProt O60674); experiment: Kinobeads assay, JAK2; type: binding; conditions: mixed Molt4/Ramos cell lysate, dot blot detection
T2 construct: endogenous in cells; host or cells: Mixed Molt4/Ramos lysate (1:2)
T2 sequence (O60674 whole entry): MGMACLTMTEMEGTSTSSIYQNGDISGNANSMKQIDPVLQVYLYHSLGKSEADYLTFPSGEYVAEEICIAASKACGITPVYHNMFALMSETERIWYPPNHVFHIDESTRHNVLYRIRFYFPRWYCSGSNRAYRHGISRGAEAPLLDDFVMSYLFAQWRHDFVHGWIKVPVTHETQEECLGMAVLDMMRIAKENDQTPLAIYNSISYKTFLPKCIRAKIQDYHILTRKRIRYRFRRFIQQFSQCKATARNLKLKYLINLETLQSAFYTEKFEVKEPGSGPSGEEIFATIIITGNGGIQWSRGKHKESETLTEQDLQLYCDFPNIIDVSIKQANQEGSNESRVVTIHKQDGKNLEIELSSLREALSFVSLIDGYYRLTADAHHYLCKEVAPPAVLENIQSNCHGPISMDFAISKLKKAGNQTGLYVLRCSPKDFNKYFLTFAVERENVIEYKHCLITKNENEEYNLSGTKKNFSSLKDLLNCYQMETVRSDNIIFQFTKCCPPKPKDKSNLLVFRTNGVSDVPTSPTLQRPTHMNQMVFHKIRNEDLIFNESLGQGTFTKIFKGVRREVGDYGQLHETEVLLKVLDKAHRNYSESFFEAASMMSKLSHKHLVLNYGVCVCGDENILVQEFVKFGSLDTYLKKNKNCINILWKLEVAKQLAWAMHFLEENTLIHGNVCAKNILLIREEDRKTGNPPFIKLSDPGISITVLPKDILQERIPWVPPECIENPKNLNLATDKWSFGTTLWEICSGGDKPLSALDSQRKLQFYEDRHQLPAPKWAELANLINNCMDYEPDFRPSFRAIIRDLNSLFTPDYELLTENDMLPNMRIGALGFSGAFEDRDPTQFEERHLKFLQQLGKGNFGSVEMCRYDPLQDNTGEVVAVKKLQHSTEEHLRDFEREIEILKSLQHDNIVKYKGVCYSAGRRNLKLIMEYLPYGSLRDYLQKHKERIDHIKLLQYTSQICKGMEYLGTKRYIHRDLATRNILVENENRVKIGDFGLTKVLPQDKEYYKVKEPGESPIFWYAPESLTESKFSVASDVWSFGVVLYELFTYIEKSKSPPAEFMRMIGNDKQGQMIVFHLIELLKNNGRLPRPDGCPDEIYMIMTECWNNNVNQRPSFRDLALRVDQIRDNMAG
In short: as §1

SMILES | IC50 (JAK3) [µM] | IC50 (JAK2) [µM]
COc1cccc(Cn2ncc3cnc(Nc4cnn(C)c4)nc32)c1F [Example 93, 1-(2-Fluoro-3-methoxybenzyl)-N-(1-methyl-1H-pyrazol-4-yl)-1H-pyrazolo[3,4-d]pyrimidin-6-amine] | 0.1 to 1 | ≥ 10
OCCn1cc(Nc2ncc3cnn(Cc4ccccc4C4CC4)c3n2)cn1 [Example 260, 2-(4-((1-(2-Cyclopropylbenzyl)-1H-pyrazolo[3,4-d]pyrimidin-6-yl)amino)-1H-pyrazol-1-yl)ethanol] | < 0.1 | 1 to 10
COCCn1cc(Nc2ncc3cnn(Cc4ccccc4C#N)c3n2)cn1 [Example 10, 2-((6-(1-(2-Methoxyethyl)-1H-pyrazol-4-ylamino)-1H-pyrazolo[3,4-d]pyrimidi-1-yl)methyl)benzonitrile] | < 0.1 | 0.1 to 1
CNC(=O)c1ccc(-n2ncc3cnc(Nc4cnn(C)c4)nc32)cc1 [Example 136, N-methyl-4-(6-((1-methyl-1H-pyrazol-4-yl)amino)-1H-pyrazolo[3,4-d]pyrimidin-1-yl)benzamide] | 0.1 to 1 | 1 to 10
Cc1ccccc1Cn1ncc2cnc(Nc3cnn(C)c3)nc21 [Example 84, N-(1-Methyl-1H-pyrazol-4-yl)-1-(2-methylbenzyl)-1H-pyrazolo[3,4-d]pyrimidin-6-amine] | < 0.1 | 1 to 10
Cc1nn(CC(F)F)cc1Nc1ncc2cnn(Cc3cc(F)ccc3C#N)c2n1 [Example 151, 2-((6-((1-(2,2-Difluoroethyl)-3-methyl-1H-pyrazol-4-yl)amino)-1H-pyrazolo[3,4-d]pyrimidin-1-yl)methyl)-4-fluorobenzonitrile] | < 0.1 | 0.1 to 1
Cn1cc(Nc2ncc3cnn(Cc4cc(F)ccc4C#N)c3n2)cn1 [Example 52, 4-Fluoro-2-((6-(1-methyl-1H-pyrazol-4-ylamino)-1H-pyrazolo[3,4-d]pyrimidin-1-yl)methyl)benzonitrile] | < 0.1 | < 0.1
Fc1ccccc1Cn1ncc2cnc(Nc3cnn(CCN4CCNCC4)c3)nc21 [Example 182, 1-(2-Fluorobenzyl)-N-(1-(2-(piperazin-1-yl)ethyl)-1H-pyrazol-4-yl)-1H-pyrazolo[3,4-d]pyrimidin-6-amine] | < 0.1 | 0.1 to 1
Cn1cc(Nc2ncc3cnn(Cc4cccc(OC5CCOC5)c4)c3n2)cn1 (centres unmarked) [Example 181, N-(1-Methyl-1H-pyrazol-4-yl)-1-(3-((tetrahydrofuran-3-yl)oxy)benzyl)-1H-pyrazolo[3,4-d]pyrimidin-6-amine] | < 0.1 | ≥ 10
Fc1ccccc1Cn1ncc2cnc(Nc3cnn(CCCN4CCC4)c3)nc21 [Example 177, N-(1-(3-(Azetidin-1-yl)propyl)-1H-pyrazol-4-yl)-1-(2-fluorobenzyl)-1H-pyrazolo[3,4-d]pyrimidin-6-amine] | < 0.1 | 0.1 to 1
CCN(CC)CCn1cc(Nc2ncc3cnn(Cc4ccccc4F)c3n2)cn1 [Example 123, N-(1-(2-(Diethylamino)ethyl)-1H-pyrazol-4-yl)-1-(2-fluorobenzyl)-1H-pyrazolo[3,4-d]pyrimidin-6-amine] | < 0.1 | 0.1 to 1
Cn1cc(Nc2ncc3cnn(Cc4c(F)c(F)cc(F)c4F)c3n2)cn1 [Example 163, N-(1-Methyl-1H-pyrazol-4-yl)-1-(2,3,5,6-tetrafluorobenzyl)-1H-pyrazolo[3,4-d]pyrimidin-6-amine] | < 0.1 | 0.1 to 1
OCCn1cc(Nc2ncc3cnn(Cc4c(F)cccc4C(F)(F)F)c3n2)cn1 [Example 261, 2-(4-((1-(2-Fluoro-6-(trifluoromethyl)benzyl)-1H-pyrazolo[3,4-d]pyrimidin-6-yl)amino)-1H-pyrazol-1-yl)ethanol] | < 0.1 | 1 to 10
Cn1cc(Nc2ncc3cnn(Cc4ccccc4)c3n2)cn1 [Example 76, 1-Benzyl-N-(1-methyl-1H-pyrazol-4-yl)-1H-pyrazolo[3,4-d]pyrimidin-6-amine] | < 0.1 | 1 to 10

Second part, the compound after the results:

IC50 (JAK3) [µM] | IC50 (JAK2) [µM] | SMILES
< 0.1 | 1 to 10 | Cn1cc(Nc2ncc3cnn(Cc4cccc(Cl)c4Cl)c3n2)cn1 [Example 178, 1-(2,3-Dichlorobenzyl)-N-(1-methyl-1H-pyrazol-4-yl)-1H-pyrazolo[3,4-d]pyrimidin-6-amine]
0.1 to 1 | 1 to 10 | Cn1cc(Nc2ncc3cnn(-c4ccc(S(=O)(=O)NCCO)cc4)c3n2)cn1 [Example 139, N-(2-Hydroxyethyl)-4-(6-((1-methyl-1H-pyrazol-4-yl)amino)-1H-pyrazolo[3,4-d]pyrimidin-1-yl)benzenesulfonamide]
< 0.1 | 1 to 10 | Cn1cc(Nc2ncc3cnn(Cc4cccc(Cl)c4F)c3n2)cn1 [Example 72, 1-(3-Chloro-2-fluorobenzyl)-N-(1-methyl-1H-pyrazol-4-yl)-1H-pyrazolo[3,4-d]pyrimidin-6-amine]
< 0.1 | 1 to 10 | COc1nn(CCO)cc1Nc1ncc2cnn(Cc3ccccc3)c2n1 [Example 106, 2-(4-((1-Benzyl-1H-pyrazolo[3,4-d]pyrimidin-6-yl)amino)-3-methoxy-1H-pyrazol-1-yl)ethanol]
< 0.1 | ≥ 10 | COc1nn(CC(F)F)cc1Nc1ncc2cnn(Cc3ccccc3C#N)c2n1 [Example 24, 2-((6-(1-(2,2-Difluoroethyl)-3-methoxy-1H-pyrazol-4-ylamino)-1H-pyrazolo[3,4-d]pyrimidin-1-yl)methyl)benzonitrile]
< 0.1 | 1 to 10 | CCn1cc(Nc2ncc3cnn(Cc4ccccc4C#N)c3n2)cn1 [Example 11, 2-((6-(1-Ethyl-1H-pyrazol-4-ylamino)-1H-pyrazolo[3,4-d]pyrimidin-1-yl)methyl)benzonitrile]
< 0.1 | 1 to 10 | COc1ccc(F)c(Cn2ncc3cnc(Nc4cnn(C)c4)nc32)c1 [Example 94, 1-(2-Fluoro-5-methoxybenzyl)-N-(1-methyl-1H-pyrazol-4-yl)-1H-pyrazolo[3,4-d]pyrimidin-6-amine]
< 0.1 | 0.1 to 1 | N#Cc1ccccc1Cn1ncc2cnc(Nc3cnn(CC(=O)N4CCOCC4)c3)nc21 [Example 14, 2-((6-(1-(2-Morpholino-2-oxoethyl)-1H-pyrazol-4-ylamino)-1H-pyrazolo[3,4-d]pyrimidin-1-yl)methyl)benzonitrile]
0.1 to 1 | ≥ 10 | Cc1nn(CC(F)F)cc1Nc1ncc2cnn(Cc3ccccc3)c2n1 [Example 120, 1-Benzyl-N-(1-(2,2-difluoroethyl)-3-methyl-1H-pyrazol-4-yl)-1H-pyrazolo[3,4-d]pyrimidin-6-amine]
< 0.1 | ≥ 10 | Cn1cc(Nc2ncc3cnn(Cc4cccc(OCCN5CCCCC5)c4)c3n2)cn1 [Example 167, N-(1-Methyl-1H-pyrazol-4-yl)-1-(3-(2-(piperidin-1-yl)ethoxy)benzyl)-1H-pyrazolo[3,4-d]pyrimidin-6-amine]
< 0.1 | 1 to 10 | COCCn1cc(Nc2ncc3cnn(Cc4ccccc4F)c3n2)cn1 [Example 28, 1-(2-Fluorobenzyl)-N-(1-(2-methoxyethyl)-1H-pyrazol-4-yl)-1H-pyrazolo[3,4-d]pyrimidin-6-amine]
0.1 to 1 | 1 to 10 | COCCOc1ccccc1Cn1ncc2cnc(Nc3cnn(C)c3)nc21 [Example 102, 1-(2-(2-Methoxyethoxy)benzyl)-N-(1-methyl-1H-pyrazol-4-yl)-1H-pyrazolo[3,4-d]pyrimidin-6-amine]
0.1 to 1 | 1 to 10 | CN1CCN(C(=O)c2ccc(-n3ncc4cnc(Nc5cnn(C)c5)nc43)cc2)CC1 [Example 149, (4-(6-((1-Methyl-1H-pyrazol-4-yl)amino)-1H-pyrazolo[3,4-d]pyrimidin-1-yl)phenyl)(4-methylpiperazin-1-yl)methanone]
< 0.1 | 0.1 to 1 | Cn1cc(Nc2ncc3cnn(-c4ccc(C(=O)N5CCOCC5)cc4)c3n2)cn1 [Example 137, (4-(6-((1-Methyl-1H-pyrazol-4-yl)amino)-1H-pyrazolo[3,4-d]pyrimidin-1-yl)phenyl)(morpholino)methanone]
